In PubChem BioAssay (NCI):
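Following 48 hours of exposure in 96-well plates, responses at five concentrations were used to interpolate endpoints linearly. Abbreviation: GI50, concentration required for 50% inhibition of growth. TGI denotes the concentration required for complete inhibition of growth.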

Experiments:
Assay in all cases: DTP human tumour cell line panel, 48 h
MALME-3M melanoma = system: MALME-3M melanoma
EKVX NSCLC = system: EKVX NSCLC
CAKI-1 renal = system: CAKI-1 renal
MOLT-4 leukemia = system: MOLT-4 leukemia
HOP-62 NSCLC = system: HOP-62 NSCLC
NCI-H460 lung = system: NCI-H460 lung
MDA-MB-435 = system: MDA-MB-435
NCI/ADR-RES ovarian = system: NCI/ADR-RES ovarian
BT-549 breast = system: BT-549 breast
OVCAR-5 ovarian = system: OVCAR-5 ovarian
786-0 renal = system: 786-0 renal
OVCAR-4 ovarian = system: OVCAR-4 ovarian
SK-MEL-2 melanoma = system: SK-MEL-2 melanoma
PC-3 prostate = system: PC-3 prostate
SR leukemia = system: SR leukemia
UACC-62 melanoma = system: UACC-62 melanoma
ACHN renal = system: ACHN renal
SW-620 colon = system: SW-620 colon
KM12 colon = system: KM12 colon
M14 melanoma = system: M14 melanoma
SK-MEL-28 melanoma = system: SK-MEL-28 melanoma
HCT-15 colon = system: HCT-15 colon
SNB-19 CNS = system: SNB-19 CNS
RPMI-8226 leukemia = system: RPMI-8226 leukemia
UO-31 renal = system: UO-31 renal
HL-60(TB) leukemia = system: HL-60(TB) leukemia
RXF 393 renal = system: RXF 393 renal
HCT-116 colon = system: HCT-116 colon
K-562 leukemia = system: K-562 leukemia
LOX IMVI melanoma = system: LOX IMVI melanoma
OVCAR-3 ovarian = system: OVCAR-3 ovarian
A498 renal = system: A498 renal
NCI-H522 lung = system: NCI-H522 lung
SF-295 CNS = system: SF-295 CNS
UACC-257 melanoma = system: UACC-257 melanoma
MDA-MB-231 breast = system: MDA-MB-231 breast
MCF7 breast = system: MCF7 breast
CCRF-CEM leukemia = system: CCRF-CEM leukemia
T-47D breast = system: T-47D breast
DU-145 prostate = system: DU-145 prostate
SK-MEL-5 melanoma = system: SK-MEL-5 melanoma
HCC-2998 colon = system: HCC-2998 colon
SK-OV-3 ovarian = system: SK-OV-3 ovarian
OVCAR-8 ovarian = system: OVCAR-8 ovarian
NCI-H226 lung = system: NCI-H226 lung
SN12C renal = system: SN12C renal
SF-268 CNS = system: SF-268 CNS
TK-10 renal = system: TK-10 renal
HT29 colon = system: HT29 colon
COLO 205 colon = system: COLO 205 colon
NCI-H23 lung = system: NCI-H23 lung
U251 CNS = system: U251 CNS
HS 578T breast = system: HS 578T breast
A549 NSCLC = system: A549 NSCLC
SNB-75 CNS = system: SNB-75 CNS
IGROV1 ovarian = system: IGROV1 ovarian
HOP-92 NSCLC = system: HOP-92 NSCLC

CC1=C2C(=C[C@@](C)(COS(C)(=O)=O)[C@@H]2O)C(=O)[C@](C)(O)C12CC2
GI50 (MALME-3M melanoma): 0.459 µM
TGI (MALME-3M melanoma): 1.76 µM
GI50 (EKVX NSCLC): 1.66 µM
TGI (EKVX NSCLC): 5.22 µM
GI50 (CAKI-1 renal): 0.406 µM
TGI (CAKI-1 renal): 5.36 µM
GI50 (MOLT-4 leukemia): 0.331 µM
TGI (MOLT-4 leukemia): > 100 µM
GI50 (HOP-62 NSCLC): 0.371 µM
TGI (HOP-62 NSCLC): 2.04 µM
GI50 (NCI-H460 lung): 0.216 µM
TGI (NCI-H460 lung): 0.517 µM
GI50 (MDA-MB-435): 0.757 µM
TGI (MDA-MB-435): 2.21 µM
GI50 (NCI/ADR-RES ovarian): 0.762 µM
TGI (NCI/ADR-RES ovarian): 5.97 µM
GI50 (BT-549 breast): 0.632 µM
TGI (BT-549 breast): 2.47 µM
GI50 (OVCAR-5 ovarian): 0.382 µM
TGI (OVCAR-5 ovarian): 3.06 µM
GI50 (786-0 renal): 1.96 µM
TGI (786-0 renal): 6.74 µM
GI50 (OVCAR-4 ovarian): 1.45 µM
TGI (OVCAR-4 ovarian): 5.68 µM
GI50 (SK-MEL-2 melanoma): 0.289 µM
TGI (SK-MEL-2 melanoma): 0.793 µM
GI50 (PC-3 prostate): 0.624 µM
TGI (PC-3 prostate): 4.82 µM
GI50 (SR leukemia): 0.36 µM
TGI (SR leukemia): > 100 µM
GI50 (UACC-62 melanoma): 0.257 µM
TGI (UACC-62 melanoma): 0.731 µM
GI50 (ACHN renal): 0.349 µM
TGI (ACHN renal): 3.55 µM
GI50 (SW-620 colon): 0.32 µM
TGI (SW-620 colon): > 100 µM
GI50 (KM12 colon): 0.579 µM
TGI (KM12 colon): 7.13 µM
GI50 (M14 melanoma): 0.717 µM
TGI (M14 melanoma): 2.54 µM
GI50 (SK-MEL-28 melanoma): 0.678 µM
TGI (SK-MEL-28 melanoma): 2.5 µM
GI50 (HCT-15 colon): 0.443 µM
TGI (HCT-15 colon): 5.14 µM
GI50 (SNB-19 CNS): 0.477 µM
TGI (SNB-19 CNS): 6.01 µM
GI50 (RPMI-8226 leukemia): 3.66 µM
TGI (RPMI-8226 leukemia): 52 µM
GI50 (UO-31 renal): 1.57 µM
TGI (UO-31 renal): 5.52 µM
GI50 (HL-60(TB) leukemia): 0.466 µM
TGI (HL-60(TB) leukemia): 4.53 µM
GI50 (RXF 393 renal): 0.335 µM
TGI (RXF 393 renal): 0.93 µM
GI50 (HCT-116 colon): 0.315 µM
TGI (HCT-116 colon): > 31.7 µM
GI50 (K-562 leukemia): 0.478 µM
TGI (K-562 leukemia): > 100 µM
GI50 (LOX IMVI melanoma): 0.365 µM
TGI (LOX IMVI melanoma): 1.69 µM
GI50 (OVCAR-3 ovarian): 0.544 µM
TGI (OVCAR-3 ovarian): 4.53 µM
TGI (A498 renal): 0.694 µM
GI50 (NCI-H522 lung): 0.347 µM
TGI (NCI-H522 lung): 1.56 µM
GI50 (SF-295 CNS): 0.293 µM
TGI (SF-295 CNS): 1.28 µM
GI50 (UACC-257 melanoma): 2.39 µM
TGI (UACC-257 melanoma): 6.9 µM
GI50 (MDA-MB-231 breast): 1.34 µM
TGI (MDA-MB-231 breast): 5.99 µM
GI50 (MCF7 breast): 0.238 µM
TGI (MCF7 breast): 2.55 µM
GI50 (CCRF-CEM leukemia): 0.344 µM
TGI (CCRF-CEM leukemia): > 100 µM
GI50 (T-47D breast): 1.79 µM
TGI (T-47D breast): 7.78 µM
GI50 (DU-145 prostate): 0.366 µM
TGI (DU-145 prostate): 5.04 µM
GI50 (SK-MEL-5 melanoma): 0.272 µM
TGI (SK-MEL-5 melanoma): 0.755 µM
GI50 (HCC-2998 colon): 0.648 µM
TGI (HCC-2998 colon): 2.87 µM
GI50 (SK-OV-3 ovarian): 0.447 µM
TGI (SK-OV-3 ovarian): 2.22 µM
GI50 (OVCAR-8 ovarian): 1.74 µM
TGI (OVCAR-8 ovarian): 12 µM
GI50 (NCI-H226 lung): 2.12 µM
TGI (NCI-H226 lung): 6.17 µM
GI50 (SN12C renal): 1.99 µM
TGI (SN12C renal): 10.7 µM
GI50 (SF-268 CNS): 0.333 µM
TGI (SF-268 CNS): 2.29 µM
GI50 (TK-10 renal): 2.22 µM
TGI (TK-10 renal): 7.14 µM
GI50 (HT29 colon): 0.414 µM
TGI (HT29 colon): 28.6 µM
GI50 (COLO 205 colon): 0.761 µM
TGI (COLO 205 colon): 2.84 µM
GI50 (NCI-H23 lung): 0.35 µM
TGI (NCI-H23 lung): 1.56 µM
GI50 (U251 CNS): 0.286 µM
TGI (U251 CNS): 1.34 µM
GI50 (HS 578T breast): 1.77 µM
TGI (HS 578T breast): 4.78 µM
GI50 (A549 NSCLC): 0.604 µM
TGI (A549 NSCLC): 6.92 µM
GI50 (SNB-75 CNS): 1.37 µM
TGI (SNB-75 CNS): 2.86 µM
GI50 (IGROV1 ovarian): 0.556 µM
TGI (IGROV1 ovarian): 5.67 µM
GI50 (HOP-92 NSCLC): 0.357 µM
TGI (HOP-92 NSCLC): 1.48 µM
